Results as given in patent US20220047569A1, “METHOD AND COMPOUND FOR USE, IN TREATING AND/OR PREVENTING NETOSIS” (Jubilant EpiPad LLC, priority 2020, published 2022).

Test system: Histone H3 Citrullination in Neutrophils
Assay: Citrullination ELISA (Citrullinated Histone H3) in calcium ionophore stimulated neutrophils
Type: cell-based
Conditions: Neutrophil; human neutrophils, 25 μM calcium ionophore, CitH3 ELISA
Protocol: Neutrophils were isolated according to the EasySep Direct Human Neutrophil Isolation Kit. In short, 50 mL of blood sample was drawn in a vacutainer containing K2EDTA from a healthy donor. To the whole blood, the isolation cocktail of 50 μL/mL was added. Then, in the next step 50 μL/mL of RapidSpheres™ was added to the sample. The sample was mixed evenly with the pipette and incubated for 10 minutes at room temperature. After incubation, PBS containing 1 mM EDTA was added at the ratio of 1:1 to the blood. Then the sample tube was incubated for 10 minutes. The enriched cell suspension was transferred into a new tube and RapidSpheres™ were added at 50 μL/mL to this suspension, mixed and incubated for 10 minutes at room temperature. At this step, the enriched cell suspension was carefully collected as a clear fraction into a fresh tube. Then, previous tube was replaced with the fresh tube containing enriched cell suspension. After the final separation, the clear solution of enriched cell suspension was carefully transferred to fresh tube which was ready to use for the experiment. These cells were then subjected to wash twice with plain RPMI 1640 media without Fetal Bovine Serum (FBS) and centrifuged at 1500 rpm for 5 minutes at room temperature. Cell counts were performed on each sample by Invitrogen cell counter. After the cell count, cell density was adjusted according to the experiment and re-suspended in complete RPMI media containing RPMI1640, 2% BSA and 1 mM CaCl2.
Freshly isolated neutrophils from human donor were seeded at a density of 0.5×10^6 cells in 400 μL cell suspension/well in a 24-well plate and cells were pre-incubated with the compound for 30 minutes by adding 50 μL of the 10× concentration to achieve the final 1× concentration of compound (10 μM, 1 μM and 0.1 μM). 1% DMSO was added in control wells. Then, the cells were stimulated in the presence and absence of calcium ionophore by adding 50 μL/well to achieve the final concentration of 25 μM. Upon incubation for 30 minutes with calcium ionophore, S7 nuclease was added to the wells and incubated for 10 minutes to disrupt NET DNA. Following incubation, 10 μL of 1 mM EDTA was added to inactivate nuclease. Cells were scrapped gently and transferred to the tubes, followed by centrifugation at 1500 rpm for 5 minutes. After centrifugation, supernatant was discarded, and 200 μL of lysis buffer containing PBS and 1× Protease inhibitor was added to the tubes. The obtained lysis was then subjected to mechanical shearing using Geno grinder by spin the plate at 2500 rpm for 10 minutes, followed by collection of supernatant and stored at −20° C. or immediately used for ELISA.
ELISA was performed as per Citrullinated Histone H3 ELISA Kit. All the buffer components from the kit were dissolved according to the manufactures protocol. ELISA Buffer Concentrate (10×) (Item No. 400060) and Wash Buffer Concentrate (400×) (Item No. 400060) along with polysorbate 20 (2000×) (Item No. 400035) was diluted to 1× with milliQ water. The standard for use in the ELISA was prepared as follows: • Obtain eight clean test tubes and label them, #1 through #8. Aliquot 4.9 mL of ELISA Buffer into tube #1. • Aliquot 500 μL of ELISA Buffer into the tubes #2-8. […] This tube is considered as blank, the lowest point on the standard curve.
100 μL of standards or diluted sample was added to the appropriate wells on the 96-well plate. Plates were covered with 96-well cover sheet and incubated for two hours at room temperature on an orbital shaker. The samples and standard were removed from the wells and washed four times with Wash Buffer. After the last wash, Anti-Histone H3 HRP Conjugate (Item No. 501441) (10×) stock solution was diluted in 1×ELISA buffer and 100 μL of the HRP Conjugate working solution was added to each well of the plate and incubated for one hour at room temperature on an orbital shaker. […]

SMILES | IC50
Cc1c(-c2cc3ccccc3n2CC2CCOCC2)nc2cc(C(=O)N3CCC[C@@H](N)C3)ccn12 [Compound 11, (R)-(3-aminopiperidin-1-yl)(3-methyl-2-(1-((tetrahydro-2H-pyran-4-yl)methyl)-1H-indol-2-yl)imidazo[1,2-a]pyridin-7-yl)methanone] | 100 to 1000 nM
N[C@@H]1CCCN(C(=O)c2cc3c4c(c2)nc(-c2cc5cc(/C=C/c6ccccc6)ccc5n2CC2CC2)n4CCO3)C1 [Compound 144, (R,E)-(3-aminopiperidin-1-yl)(2-(1-(cyclopropylmethyl)-5-styryl-1H-indol-2-yl)-3,4-dihydro-5-oxa-1,2a-diazaacenaphthylen-7-yl)methanone] | < 100 nM
Cc1c(-c2cc3cc(F)ccc3n2Cc2ccc(F)cc2)nc2cc(C(=O)N3CCC[C@@H](N)C3)ccn12 [Compound 76, (R)-(3-aminopiperidin-1-yl)(2-(5-fluoro-1-(4-fluorobenzyl)-1H-indol-2-yl)-3-methylimidazo[1,2-a]pyridin-7-yl)methanone] | > 1000 nM
N[C@@H]1CCCN(C(=O)c2cc3c4c(c2)nc(-c2cc5ccccc5n2CC(F)F)n4CCO3)C1 [Compound 133, (R)-(3-aminopiperidin-1-yl)(2-(1-(2,2-difluoroethyl)-1H-indol-2-yl)-3,4-dihydro-5-oxa-1,2a-diazaacenaphthylen-7-yl)methanone] | > 1000 nM
COc1ccc2cc(-c3nc4cc(C(=O)N5CCC[C@@H](N)C5)cc5c4n3CCO5)n(CC3CC3)c2c1 [Compound 109, (R)-(3-aminopiperidin-1-yl)(2-(1-(cyclopropylmethyl)-6-methoxy-1H-indol-2-yl)-3,4-dihydro-5-oxa-1,2a-diazaacenaphthylen-7-yl)methanone] | 100 to 1000 nM
COc1ccc(Cn2c(-c3nc4cc(C(=O)N5CCC[C@@H](N)C5)cc5c4n3CCO5)cc3cc(F)ccc32)cc1 [Compound 132, (R)-(3-aminopiperidin-1-yl)(2-(5-fluoro-1-(4-methoxybenzyl)-1H-indol-2-yl)-3,4-dihydro-5-oxa-1,2a-diazaacenaphthylen-7-yl)methanone] | > 1000 nM
COc1ccc(Cn2c(-c3nc4cc(C(=O)N5CCC[C@@H](N)C5)cc5c4n3CCO5)cc3cccc(Cl)c32)cc1 [Compound 125, (R)-(3-aminopiperidin-1-yl)(2-(7-chloro-1-(4-methoxybenzyl)-1H-indol-2-yl)-3,4-dihydro-5-oxa-1,2a-diazaacenaphthylen-7-yl)methanone] | < 100 nM
Cc1c(-c2cc3ccccc3n2Cc2ccncc2)nc2cc(C(=O)N3CCC[C@@H](N)C3)ccn12 [Compound 10, (R)-(3-aminopiperidin-1-yl)(3-methyl-2-(1-(pyridin-4-ylmethyl)-1H-indol-2-yl)imidazo[1,2-a]pyridin-7-yl)methanone] | < 100 nM
COc1ccc2cc(-c3nc4cc(C(=O)N5CCC[C@@H](N)C5)ccn4c3C)n(Cc3ccc(F)cc3)c2c1 [Compound 80, (R)-(3-aminopiperidin-1-yl)(2-(1-(4-fluorobenzyl)-6-methoxy-1H-indol-2-yl)-3-methylimidazo[1,2-a]pyridin-7-yl)methanone] | > 1000 nM
COc1ccc(Cn2c(-c3nc4cc(C(=O)N5CCC[C@@H](N)C5)cc5c4n3CCO5)cc3ccc(F)cc32)cc1 [Compound 136, (R)-(3-aminopiperidin-1-yl)(2-(6-fluoro-1-(4-methoxybenzyl)-1H-indol-2-yl)-3,4-dihydro-5-oxa-1,2a-diazaacenaphthylen-7-yl)methanone] | > 1000 nM
N[C@@H]1CCCN(C(=O)c2cc3c4c(c2)nc(-c2cc5ccccc5n2Cc2ccccc2)n4CCO3)C1 [Compound 104, (R)-(3-aminopiperidin-1-yl)(2-(1-benzyl-1H-indol-2-yl)-3,4-dihydro-5-oxa-1,2a-diazaacenaphthylen-7-yl)methanone] | 100 to 1000 nM
COc1ccc2cc(-c3nc4cc(C(=O)N5CCC[C@@H](N)C5)cc5c4n3CCO5)n(Cc3ncccc3F)c2c1 [Compound 119, (R)-(3-aminopiperidin-1-yl)(2-(1-((3-fluoropyridin-2-yl)methyl)-6-methoxy-1H-indol-2-yl)-3,4-dihydro-5-oxa-1,2a-diazaacenaphthylen-7-yl)methanone] | 100 to 1000 nM
Cc1csc(Cn2c(-c3nc4cc(C(=O)N5CCC[C@@H](N)C5)cc5c4n3CCO5)cc3ccccc32)n1 [Compound 145, (R)-(3-aminopiperidin-1-yl)(2-(1-((4-methylthiazol-2-yl)methyl)-1H-indol-2-yl)-3,4-dihydro-5-oxa-1,2a-diazaacenaphthylen-7-yl)methanone] | < 100 nM
COc1ccc(Cn2c(-c3nc4cc(C(=O)N5CCC[C@@H](N)C5)ccn4c3C)cc3cc(F)ccc32)cc1 [Compound 75, (R)-(3-aminopiperidin-1-yl)(2-(5-fluoro-1-(4-methoxybenzyl)-1H-indol-2-yl)-3-methylimidazo[1,2-a]pyridin-7-yl)methanone] | 100 to 1000 nM
N[C@@H]1CCCN(C(=O)c2cc3c4c(c2)nc(-c2cc5cccc(Cl)c5n2Cc2ncccc2F)n4CCO3)C1 [Compound 120, (R)-(3-aminopiperidin-1-yl)(2-(7-chloro-1-((3-fluoropyridin-2-yl)methyl)-1H-indol-2-yl)-3,4-dihydro-5-oxa-1,2a-diazaacenaphthylen-7-yl)methanone] | 100 to 1000 nM
N[C@@H]1CCCN(C(=O)c2cc3c4c(c2)nc(-c2cc5ccc(F)cc5n2Cc2ncccc2F)n4CCO3)C1 [Compound 121, (R)-(3-aminopiperidin-1-yl)(2-(6-fluoro-1-((3-fluoropyridin-2-yl)methyl)-1H-indol-2-yl)-3,4-dihydro-5-oxa-1,2a-diazaacenaphthylen-7-yl)methanone] | > 1000 nM
Cc1c(-c2cc3cc(F)ccc3n2Cc2ccncc2)nc2cc(C(=O)N3CCC[C@@H](N)C3)ccn12 [Compound 74, (R)-(3-aminopiperidin-1-yl)(2-(5-fluoro-1-(pyridin-4-ylmethyl)-1H-indol-2-yl)-3-methylimidazo[1,2-a]pyridin-7-yl)methanone] | > 1000 nM
CC(C)Cn1c(-c2nc3cc(C(=O)N4CCC[C@@H](N)C4)cc4c3n2CCO4)cc2ccccc21 [Compound 117, (R)-(3-aminopiperidin-1-yl)(2-(1-isobutyl-1H-indol-2-yl)-3,4-dihydro-5-oxa-1,2a-diazaacenaphthylen-7-yl)methanone] | 100 to 1000 nM
N[C@@H]1CCCN(C(=O)c2cc3c4c(c2)nc(-c2cc5ccccc5n2Cc2ccncc2F)n4CCO3)C1 [Compound 110, (R)-(3-aminopiperidin-1-yl)(2-(1-((3-fluoropyridin-4-yl)methyl)-1H-indol-2-yl)-3,4-dihydro-5-oxa-1,2a-diazaacenaphthylen-7-yl)methanone] | < 100 nM
COc1ccc(Cn2c(-c3nc4cc(C(=O)N5CCC[C@@H](N)C5)cc5c4n3CCO5)cc3ccccc32)cc1 [Compound 105, (R)-(3-aminopiperidin-1-yl)(2-(1-(4-methoxybenzyl)-1H-indol-2-yl)-3,4-dihydro-5-oxa-1,2a-diazaacenaphthylen-7-yl)methanone] | 100 to 1000 nM
Cc1c(-c2cc3ccccc3n2CC(C)C)nc2cc(C(=O)N3CCC[C@@H](N)C3)ccn12 [Compound 60, (R)-(3-aminopiperidin-1-yl)(2-(1-isobutyl-1H-indol-2-yl)-3-methylimidazo[1,2-a]pyridin-7-yl)methanone] | > 1000 nM
N[C@@H]1CCCN(C(=O)c2cc3c4c(c2)nc(-c2cc5ccc(CO)cc5n2CC2CC2)n4CCO3)C1 [Compound 147, (R)-(3-aminopiperidin-1-yl)(2-(1-(cyclopropylmethyl)-6-(hydroxymethyl)-1H-indol-2-yl)-3,4-dihydro-5-oxa-1,2a-diazaacenaphthylen-7-yl) methanone] | 100 to 1000 nM
